The source of these data is US20230122776A1, “ANTIVIRAL AGENT” (priority 2020, published 2023).

Where “and” joins values, the source holds several entries; their conditions need not be identical. Identical values can stand only once. Like-named read-outs stand apart in the source and are kept apart here.

Experiment [1] has as its system SARS-CoV-2. The experiment is classed as in vivo. As to conditions: 4 close contacts; inhaled taurolidine 0.5% 3 times or twice a day for 7 days.
Experiment [2] deals with SARS-CoV-2. The experiment is classed as in vivo.
For experiment [3], the target named is blood coagulation factor X (Homo sapiens, UniProt P00742). As to conditions: from Reinmüller, Zentralblatt Chirurgie 124 (1999); cited from earlier work.
Sequence of blood coagulation factor X (P00742 41-488): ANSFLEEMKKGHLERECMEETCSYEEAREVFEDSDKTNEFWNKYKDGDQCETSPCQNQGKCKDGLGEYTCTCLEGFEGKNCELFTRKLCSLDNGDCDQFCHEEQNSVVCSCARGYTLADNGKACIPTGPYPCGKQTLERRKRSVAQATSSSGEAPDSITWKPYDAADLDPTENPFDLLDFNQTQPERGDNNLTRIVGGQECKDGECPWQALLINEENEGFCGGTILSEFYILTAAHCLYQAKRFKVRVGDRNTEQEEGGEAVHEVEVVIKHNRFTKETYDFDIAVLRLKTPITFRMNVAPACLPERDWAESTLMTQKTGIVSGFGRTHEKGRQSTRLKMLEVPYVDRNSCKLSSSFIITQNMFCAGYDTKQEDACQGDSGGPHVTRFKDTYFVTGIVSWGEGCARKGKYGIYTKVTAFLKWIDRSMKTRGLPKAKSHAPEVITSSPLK

For the compound `O=S1(=O)CCN(CN2CCS(=O)(=O)NC2)CN1` [taurolidine], the “POCT for SARS-CoV-2 under prophylaxis” value in the experiment with SARS-CoV-2 [1] was “remained negative”. Besides, the “disease symptoms under prophylaxis” value in the experiment with SARS-CoV-2 [1] was “remained symptom-free”. In addition, the “time interval from the start of treatment to the easing of the symptoms” value in the experiment with SARS-CoV-2 [2] (SARS-CoV-2 positive (POCT) participant, inhaled taurolidine 0.5% three times a day) is no more than 48 h; in the experiment with SARS-CoV-2 [2] (in vivo), 96 h and 72 h. Moreover, the “activity of the blood coagulation factor X” value in experiment [3] is reported as “inhibits the activity”.
